≈ marks a conversion by molar mass, not a printed value. Residues, ends and D or L forms follow the SMILES beside them.
Legend:
E. coli 25922 = test: microbe, parasite or virus in culture; format: cell-based, Escherichia coli
Protocol: (§1) Minimal inhibitory concentration (MIC) assays were performed as described previously. Briefly, after incubation overnight in Mueller-Hinton (MH) broth at 37°C, the bacteria were grown to exponential growth phase and diluted to approximately 1×10^5 CFU/ml. The peptides were dissolved in 0.2% bovine serum albumin (BSA) containing 0.01% (v/v) acetic acid, and they were then added to each well of a 96-well plates at a final concentration ranging from 0.25 to 128 µM. Each well contained a total volume of 100 µL (50 µL of inoculums and 50 µL of peptide-containing solution). The MICs were determined as the lowest concentration of peptide that prevented visible turbidity by visual inspection after incubation at 37°C for 16–18 h. Independent experiments were carried out at least three times. Uninoculated MH broth was used as a negative control and cultures without added peptides served as the positive control. Minimal bactericidal concentration (MBC) assay was performed following MIC assay. At the end of MIC assay 10 µL aliquots of the medium were taken from peptide-containing wells with no visible bacterial growth. These are plated on MH agar, incubated for 18 h to allow colony growth. The MBC was defined as the lowest peptide concentration resulting in no bacterial growth in the media. Each assay was performed at least three times.

S. typhimurium 7731 = test: microbe, parasite or virus in culture; format: cell-based, Salmonella typhimurium
Protocol: as §1

S. aureus 29213 = test: microbe, parasite or virus in culture; format: cell-based, Staphylococcus aureus
Protocol: as §1

S. epidermidis 12228 = test: microbe, parasite or virus in culture; format: cell-based, Staphyfococcus epidermidis
Protocol: as §1

P. aeruginosa 27853 = test: microbe, parasite or virus in culture; format: cell-based, Pseudomonas aeruginosa
Protocol: as §1

P. auruginosa 10419 = test: microbe, parasite or virus in culture; format: cell-based, Pseudomonas aeruginosa
Protocol: as §1

P. auruginosa 21625 = test: microbe, parasite or virus in culture; format: cell-based, Pseudomonas aeruginosa
Protocol: as §1

P. auruginosa 21630 = test: microbe, parasite or virus in culture; format: cell-based, Pseudomonas aeruginosa
Protocol: as §1

P. auruginosa LC = test: microbe, parasite or virus in culture; format: cell-based, Pseudomonas aeruginosa
Protocol: as §1

[1] = tested on: P. auruginosa LCCE (ceftazidime-resistant strain); test: microbe, parasite or virus in culture
Protocol: as §1
(§2) The antimicrobial activity of the RI16 and mutant peptides against Gram-negative and Gram-positive bacteria were determined.

[2] = tested on: P. auruginosa LCCI (ciprofloxacin-resistant strain); test: microbe, parasite or virus in culture
Protocol: as §1, §2

[3] = tested on: P. auruginosa LCGE (gentamincin-resistant strain); test: microbe, parasite or virus in culture
Protocol: as §1, §2

Female KM mice = test: In vivo toxicity; set-up: species or system Chinese Kun Ming (KM) mice; settings: intraperitoneal injection, 3, 6, 30 or 60 mg per kg of body weight, 10/group
Protocol: The in vivo toxicity of the peptide was also evaluated. Female KM mice (weighing 20 to 25 g) were injected intraperitoneally with 0.1 ml saline and 3, 6, 30, and 60 mg peptide per kg of body weight. The animals (10/group) were directly inspected for adverse effects, such as weight loss, piloerection, motility and mortality for 7 days thereafter. All mice were allowed free water and a maintenance diet in a 12-hour light/dark cycle. All cages contained wood shavings and bedding. The experiment was carried out in strict accordance with the recommendations of the Guide for the Care and Use of Laboratory Animals of Northeast Agricultural University, and the study protocol was approved by Northeast Agricultural University Institutional Animal Care and Use Committee. The mice were monitored for a week and no mice died during the experiment.

[4] = tested on: P. aeruginosa ATCC27853 biofilms; test: Biofilm biomass assay and FE-SEM imaging; format: cell-based, Pseudomonas aeruginosa
Protocol: A static abiotic solid surface assay was used to analyze biofilm formation as described before, with minor modification. Briefly, overnight cultures of P. aeruginosa ATCC27853 were diluted 1∶100 in fresh medium, added (500 µL) to wells of 12-well culture plates, and grown for 24 h at 37°C. Planktonic cells and loosely attached cells were removed, and wells were then refilled with 500 µL of fresh broth in the absence or presence of different concentrations of peptides. After incubation the biofilms were stained with 0.1% (w/v) crystal violet. Ethanol (95%, v/v) was added to each well, and absorbance was measured at 600 nm. The experiments were done at least three times in duplicate, and the data was expressed as mean ± standard deviations.
For microscopic observation of the biofilm, sterilized coverslips were placed at the bottom of a 12-well plate. After incubation, cells were fixed with 2.5% glutaraldehyde overnight. The samples were then dehydrated through a graded series of ethanol (50%, 70%, 90%, and 100%), followed by critical–point drying, gold sputtering, and examination using an FE-SEM (Hitachi, Japan).

## CC[C@H](C)[C@H](NC(=O)[C@H](CCCCN)NC(=O)[C@H](CCCCN)NC(=O)[C@H](CC(C)C)NC(=O)[C@H](CCCNC(=N)N)NC(=O)[C@H](CCCCN)NC(=O)[C@H](CCCNC(=N)N)NC(=O)[C@H](Cc1c[nH]c2ccccc12)NC(=O)[C@H](CCCCN)NC(=O)[C@H](CCCCN)NC(=O)[C@H](CCCNC(=N)N)NC(=O)[C@H](CC(C)C)NC(=O)[C@H](CCCNC(=N)N)NC(=O)[C@H](CCCNC(=N)N)NC(=O)[C@H](Cc1ccccc1)NC(=O)[C@@H](N)CCCNC(=N)N)C(N)=O [T9W] (H-RFRRLRKKWRKRLKKI-NH2)
E. coli 25922; 25922
  MIC: 64 µM (≈ 145 µg/mL)
E. coli 25922; 25922, 18 h
  MBC: >128 µM
S. typhimurium 7731; 7731
  MIC: 128 µM (≈ 290 µg/mL)
S. typhimurium 7731; 7731, 18 h
  MBC: >128 µM
S. aureus 29213; 29213
  MIC: 128 µM (≈ 290 µg/mL)
S. aureus 29213; 29213, 18 h
  MBC: >128 µM
S. epidermidis 12228; 12228
  MIC: 64 µM (≈ 145 µg/mL)
S. epidermidis 12228; 12228, 18 h
  MBC: >128 µM
P. aeruginosa 27853; 27853
  MIC: 2 µM (≈ 4.54 µg/mL)
P. aeruginosa 27853; 27853, 18 h
  MBC: 2 µM (≈ 4.54 µg/mL)
P. auruginosa 10419
  MIC: 4 µM (≈ 9.07 µg/mL)
P. auruginosa 10419; 18 h
  MBC: 4 µM (≈ 9.07 µg/mL)
P. auruginosa 21625
  MIC: 4 µM (≈ 9.07 µg/mL)
P. auruginosa 21625; 18 h
  MBC: 4 µM (≈ 9.07 µg/mL)
P. auruginosa 21630
  MIC: 4 µM (≈ 9.07 µg/mL)
P. auruginosa 21630; 18 h
  MBC: 4 µM (≈ 9.07 µg/mL)
P. auruginosa LC
  MIC: 1 µM (≈ 2.27 µg/mL)
P. auruginosa LC; 18 h
  MBC: 2 µM (≈ 4.54 µg/mL)
[1]
  MIC: 4 µM (≈ 9.07 µg/mL)
[1]; 18 h
  MBC: 8 µM (≈ 18.1 µg/mL)
[2]
  MIC: 2 µM (≈ 4.54 µg/mL)
[2]; 18 h
  MBC: 4 µM (≈ 9.07 µg/mL)
[3]
  MIC: 4 µM (≈ 9.07 µg/mL)
[3]; 18 h
  MBC: 8 µM (≈ 18.1 µg/mL)
Female KM mice; 7 days, data not shown
  Signs of toxicity (weight loss, piloerection, motility): no signs of toxicity
Female KM mice; at least 7 days
  Survival: all survived

## LL37: the only host defense peptide encoded by the human cathelicidin gene, which eliminates bacteria by targeting membranes (LLGDFFRKSKEKIGKEFKRIVQRIKDFLRNLVPRTES; Antibacterial peptide LL-37; UniProt P49913 134-170, looked up)
[4]; P. aeruginosa 27853, 24 h treatment, various concentrations, crystal violet, absorbance 600 nm, relative to untreated control, Fig. 6A
  Biofilm biomass of pre-formed biofilms: reduced
[4]; P. aeruginosa 27853 biofilms, peptides at 4×MIC, Fig. 6B
  Cell densities in the biofilms (FE-SEM): significantly reduced

— publication PMC4262413, “Importance of Tryptophan in Transforming an Amphipathic Peptide into a Pseudomonas aeruginosa-Targeted Antimicrobial Peptide” (PLoS ONE, 2014)
